Assay results taken from ChEMBL document CHEMBL1201862, “PubChem BioAssay data set” (2004).
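Growth conditions: 96-well plates. Treatment: test compound, 48 hours, 5 concentrations. Analysis: linear interpolation between bracketing concentrations; unreached endpoints set to highest concentration. Here, GI50 denotes the concentration required for 50% inhibition of growth.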 Active and inactive are the calls of the source. Cut-off read from the data, not from the text of the source: active = GI50 up to about 1.1 µM and inactive = higher.

Columns and labels:
Experiment in all cases: inhibition of tumour cell growth, NCI panel, 48 h
[1] = system: 786-0
[2] = system: A549
[3] = system: ACHN
[4] = system: CCRF-CEM
[5] = system: DU-145
[6] = system: EKVX
[7] = system: HCC 2998
[8] = system: HCT-116
[9] = system: HCT-15
[10] = system: HL-60
[11] = system: HOP-62
[12] = system: HOP-92
[13] = system: HT-29
[14] = system: Hs-578T
[15] = system: IGROV-1
[16] = system: K562
[17] = system: KM12
[18] = system: LOX IMVI
[19] = system: M14
[20] = system: MCF7
[21] = system: MDA-MB-435
[22] = system: MDA-N
[23] = system: MOLT-4
[24] = system: Malme-3M
[25] = system: NCI-H226
[26] = system: NCI-H23
[27] = system: NCI-H460
[28] = system: NCI-H522
[29] = system: NCI/ADR-RES
[30] = system: OVCAR-3
[31] = system: OVCAR-4
[32] = system: OVCAR-5
[33] = system: OVCAR-8
[34] = system: PC-3
[35] = system: RPMI-8226
[36] = system: RXF 393
[37] = system: SF-268
[38] = system: SF-295
[39] = system: SF-539
[40] = system: SK-MEL-28
[41] = system: SK-MEL-2
[42] = system: SK-MEL-5
[43] = system: SK-OV-3
[44] = system: SN12C
[45] = system: SNB-19
[46] = system: SNB-75
[47] = system: SR
[48] = system: SW-620
[49] = system: T47D
[50] = system: TK-10
[51] = system: U-251
[52] = system: UACC-257
[53] = system: UO-31
[54] = system: A498
[55] = system: CAKI-1
[56] = system: COLO 205
[57] = system: UACC-62

CCOC(=O)C(NC(=O)CC(C)C)(Nc1ccc(C(F)(F)F)cc1)C(F)(F)F (stereo not drawn)
GI50 [1]: 82.4 µM (inactive)
GI50 [2]: > 100 µM (inactive)
GI50 [3]: 14.5 µM (inactive)
GI50 [4]: 35.6 µM (inactive)
GI50 [5]: 89.9 µM (inactive)
GI50 [6]: > 100 µM (inactive)
GI50 [7]: 32.8 µM (inactive)
GI50 [8]: 17.2 µM (inactive)
GI50 [9]: 29 µM
GI50 [10]: 21 µM (inactive)
GI50 [11]: 36.1 µM (inactive)
GI50 [12]: 30.3 µM (inactive)
GI50 [13]: 21 µM (inactive)
GI50 [14]: 25.5 µM (inactive)
GI50 [15]: 22.2 µM (inactive)
GI50 [16]: 23.9 µM (inactive)
GI50 [17]: 14.7 µM (inactive)
GI50 [18]: 84.5 µM (inactive)
GI50 [19]: > 100 µM (inactive)
GI50 [20]: > 100 µM (inactive)
GI50 [21]: > 100 µM (inactive)
GI50 [22]: 32.6 µM (inactive)
GI50 [23]: 23 µM (inactive)
GI50 [24]: 96.4 µM (inactive)
GI50 [25]: > 100 µM (inactive)
GI50 [26]: 76.4 µM (inactive)
GI50 [27]: 26.4 µM (inactive)
GI50 [28]: 16.7 µM (inactive)
GI50 [29]: 22.6 µM (inactive)
GI50 [30]: 13.4 µM (inactive)
GI50 [31]: 35.4 µM (inactive)
GI50 [32]: > 100 µM (inactive)
GI50 [33]: 27.1 µM (inactive)
GI50 [34]: 20 µM (inactive)
GI50 [35]: 16.7 µM (inactive)
GI50 [36]: 35.4 µM (inactive)
GI50 [37]: > 100 µM (inactive)
GI50 [38]: > 100 µM (inactive)
GI50 [39]: > 100 µM (inactive)
GI50 [40]: > 100 µM (inactive)
GI50 [41]: 15.7 µM (inactive)
GI50 [42]: 82.8 µM (inactive)
GI50 [43]: > 100 µM (inactive)
GI50 [44]: > 100 µM (inactive)
GI50 [45]: > 100 µM (inactive)
GI50 [46]: 6.31 µM (inactive)
GI50 [47]: 23.4 µM (inactive)
GI50 [48]: 57.8 µM (inactive)
GI50 [49]: 18.4 µM (inactive)
GI50 [50]: 40.5 µM (inactive)
GI50 [51]: 28 µM (inactive)
GI50 [52]: 44.3 µM (inactive)
GI50 [53]: 61.7 µM (inactive)

CC(=O)c1ccc(-c2oc(-c3ccccc3)cc2-c2ccc3c(c2)OCO3)s1
GI50 [1]: > 100 µM (inactive)
GI50 [54]: > 100 µM (inactive)
GI50 [3]: > 100 µM (inactive)
GI50 [55]: 2.42 µM (inactive)
GI50 [4]: 0.0313 µM (active)
GI50 [56]: > 100 µM (inactive)
GI50 [5]: > 100 µM (inactive)
GI50 [6]: > 100 µM (inactive)
GI50 [7]: > 100 µM (inactive)
GI50 [8]: > 100 µM (inactive)
GI50 [10]: 1.02 µM (active)
GI50 [11]: > 100 µM (inactive)
GI50 [12]: > 100 µM (inactive)
GI50 [13]: > 100 µM (inactive)
GI50 [14]: > 100 µM (inactive)
GI50 [15]: > 100 µM (inactive)
GI50 [16]: > 100 µM (inactive)
GI50 [19]: 65.3 µM (inactive)
GI50 [20]: 59 µM (inactive)
GI50 [21]: 3.07 µM (inactive)
GI50 [23]: > 100 µM (inactive)
GI50 [25]: > 100 µM (inactive)
GI50 [26]: 19.1 µM (inactive)
GI50 [27]: 68.5 µM (inactive)
GI50 [29]: 49.7 µM (inactive)
GI50 [30]: > 100 µM (inactive)
GI50 [32]: > 100 µM (inactive)
GI50 [33]: > 100 µM (inactive)
GI50 [35]: > 100 µM (inactive)
GI50 [36]: > 100 µM (inactive)
GI50 [37]: 34.4 µM (inactive)
GI50 [38]: > 100 µM (inactive)
GI50 [39]: > 100 µM (inactive)
GI50 [42]: > 100 µM (inactive)
GI50 [43]: > 100 µM (inactive)
GI50 [44]: > 100 µM (inactive)
GI50 [46]: > 100 µM (inactive)
GI50 [47]: > 100 µM (inactive)
GI50 [48]: > 100 µM (inactive)
GI50 [49]: 17 µM (inactive)
GI50 [50]: > 100 µM (inactive)
GI50 [51]: > 100 µM (inactive)
GI50 [52]: > 100 µM (inactive)
GI50 [57]: > 100 µM (inactive)
GI50 [53]: > 100 µM (inactive)
